These results are taken from patent US10196383B2, “Substituted quinazoline compounds and preparation and uses thereof” (Sunshine Lake Pharma Co., Ltd., priority 2015, dated 2019).

For orientation: AUC(0-inf) means the area under the concentration-time curve extrapolated to infinity. Lower therefore signals less exposure. What is called AUC(0-t) is the area under the concentration-time curve up to a stated or last time point. Read a low AUC(0-t) as low exposure. The Cmax is the peak of the concentration-time curve. Broadly, the Tmax is the time from dosing to the highest level. Broadly, the IC50 is the concentration needed to halve the response being measured.

Series [1] is described as follows: Pharmacokinetic evaluation with intravenous or oral administration. In kind it is in vivo. Particulars: rats; for AUC(0-inf) / AUC(0-t) / Cmax / Tmax / clearance / Vd: rat, plasma; for Vd: read-out: Vss. How it is done:
Pharmacokinetics of the compound of the present invention in rats, dogs or monkeys was evaluated in the present invention. The compounds of this invention were administered with a saline solution of 5% DMSO+5% Kolliphor HS 15+2% (2% HCl)+88% Saline or 10% DMSO+10% Kolliphor HS 15+80% physiological. For intravenous administration, the animals were given a dose of 1 mg/kg, drew blood (0.3 mL) at the time point of 0.083, 0.25, 0.5, 1.0, 2.0, 4.0, 6.0, 8.0 and 24 h, and centrifuged in 3,000 or 4,000 rpm for 10 min. For oral (p.o.) administration, the animals were given a dose of 2.5 mg/kg or 5 mg/kg, drew blood (0.3 mL) at the time point of 0.25, 0.5, 1.0, 2.0, 4.0, 6.0, 8.0 and 24 h, and centrifuged in 3,000 or 4,000 rpm for 10 min. Plasma solution was collected and was stored at −20° C. or […] until LC/MS/MS analysis.

Series [2] has as its target humanized OX2 receptor (Homo sapiens (Human), UniProt O43614). Put plainly: Antagonism of humanized OX2 receptor assay (fluorescence detection of free cytoplasmic calcium, 10 nM orexin B). In kind it is cell-based. Particulars: humanized OX2 receptor transfected HEK-293 cells. How it is done:
The capability of the compounds to antagonism of humanized OX2 receptor transfected by the HEK-293 cells was evaluated by the method of fluorescence detected free calcium concentration in the cytoplasm. The cells were suspended in cell culture medium (invitrogen), and then added to a microplate with an average density of 3×10^4 cells/well. The fluorescent probes (Fluo4 NW, Invitrogen) was mixed with probenecid Hank's balanced salt solution (invitrogen), followed by addition of 20 mM hydroxyethyl piperazine […] (invitrogen) (pH 7.4). The resulting mixture was eventually added to the microwells containing cells. The cells were incubated at 37° C. for 60 min, and then balanced at 22° C. for 15 min. The microplate was placed in a microplate reader (CellLux, PerkinElmer), and the solution of test compound with different concentrations or Hank's balanced salt solution was added. The microplate containing the solution was incubated for 5 min, followed by the addition of 10 nM of orexin B or a balanced salt solution (as control). The changes of fluorescence intensity proportional to the concentration of calcium ions in the cytoplasm were measured.
With the substrate control as 0 and 10 nM of orexin B as 100%, inhibition rate of each compound was recorded. Referring to the compound JNJ10397049, several different concentrations were measured in each experiment. Dose-response curves were made, and IC50 value of each compound was calculated.

In series [3] the target is humanized OX1 receptor (Homo sapiens (Human), UniProt O43613). Put plainly: Antagonism of humanized OX1 receptor assay (fluorescence detection of free cytoplasmic calcium, 3 nM orexin A). In kind it is cell-based. Particulars: humanized OX1 receptor transfected CHO cells. The procedure:
The capability of the compounds to the antagonism of humanized OX1 receptor transfected to the Chinese hamster ovary (CHO) cells was evaluated by the method of fluorescence detected free calcium concentration in the cytoplasm. The cells were suspended in a cell culture medium (invitrogen), and then plated to a microplate with an average density of 2×10^4 cells/well. The fluorescent probes (Fluo4 NW, Invitrogen) was mixed with probenecid Hank's balanced salt solution (invitrogen), followed by addition of 20 mM hydroxyethyl piperazine […] (invitrogen) (pH 7.4). The resulting mixture was eventually added to the microwells containing cells. The cells were incubated at 37° C. for 60 min, and then balanced at 22° C. for 15 min. The microplate was placed in a microplate reader (CellLux, PerkinElmer), and the solution of test compound with different concentrations or Hank's balanced salt solution was added. The microplate containing the solution was incubated for 5 min, followed by the addition of 3 nM of orexin A or a balanced salt solution (as control). The changes of fluorescence intensity proportional to the concentration of calcium ions in the cytoplasm were measured.
With the substrate control as 0 and 3 nM orexin A as 100%, inhibition rate of each compound was recorded. Referring to the compound SB334867, several different concentrations were measured in each experiment. Dose-response curves were made, and IC50 value of each compound was calculated.

Setting [4] is: intravenous administration, 1 mg/kg.

humanized OX2 receptor, sequence (O43614 whole entry): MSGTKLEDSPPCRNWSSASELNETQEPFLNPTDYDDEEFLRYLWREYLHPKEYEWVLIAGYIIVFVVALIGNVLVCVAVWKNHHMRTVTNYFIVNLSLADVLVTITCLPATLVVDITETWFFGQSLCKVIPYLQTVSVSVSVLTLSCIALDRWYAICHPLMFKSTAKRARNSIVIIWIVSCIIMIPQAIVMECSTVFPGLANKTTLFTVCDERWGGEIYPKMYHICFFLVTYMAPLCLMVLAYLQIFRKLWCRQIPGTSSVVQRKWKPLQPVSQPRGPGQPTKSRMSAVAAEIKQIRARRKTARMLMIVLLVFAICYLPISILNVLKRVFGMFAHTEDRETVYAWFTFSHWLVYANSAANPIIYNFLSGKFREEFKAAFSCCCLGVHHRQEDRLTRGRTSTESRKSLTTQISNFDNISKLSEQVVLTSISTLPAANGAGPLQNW
humanized OX1 receptor, sequence (O43613 whole entry): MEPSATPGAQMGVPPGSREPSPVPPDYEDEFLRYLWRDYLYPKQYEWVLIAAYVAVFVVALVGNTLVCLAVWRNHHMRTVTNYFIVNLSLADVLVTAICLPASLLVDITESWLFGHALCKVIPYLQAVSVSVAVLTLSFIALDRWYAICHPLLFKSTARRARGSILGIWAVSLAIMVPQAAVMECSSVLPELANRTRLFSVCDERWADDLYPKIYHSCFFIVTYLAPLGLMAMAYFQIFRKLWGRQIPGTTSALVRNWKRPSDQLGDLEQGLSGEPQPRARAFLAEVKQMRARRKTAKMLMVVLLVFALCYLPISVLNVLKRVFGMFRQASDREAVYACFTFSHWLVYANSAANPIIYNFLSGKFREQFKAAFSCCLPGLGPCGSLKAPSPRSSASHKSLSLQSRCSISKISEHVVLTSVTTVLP

For `O=C(c1ccccc1-n1nccn1)N1CCCN(c2nc3ccc(Cl)cc3c(=O)[nH]2)CC1` [Example 7, 2-(4-(2-(2H-1,2,3-triazol-2-yl)benzoyl)-1,4-diazepan-1-yl)-6-chloroquinazolin-4(3H)-one], in series [1] (setting [4]), the AUC(0-inf) turned out to be 3.7 µg·h/mL, the AUC(0-t) came out at 3.45 µg·h/mL, the maximum concentration (Cmax) was 4.08 µg/mL and the Tmax came out at 4.98 min. For the same compound, in series [1] (setting [4]), the clearance was 0.271 L/h/kg and the Vd worked out at 1.33 L/kg. In addition, in series [1] (oral administration, 5 mg/kg), the AUC(0-inf) stood at 15 µg·h/mL, the AUC(0-t) is 14.3 µg·h/mL, the Cmax was determined as 13.8 µg/mL and the Tmax was found to be 15 min. For the same compound, in series [1] (oral administration, 5 mg/kg), the F stood at 83.1%.

As for `Cc1ccc(-n2nccn2)c(C(=O)N2CCN(c3nc4ccc(Cl)cc4c(=O)[nH]3)CCC2C)c1` (centres unmarked) [Example 6, 6-chloro-2-(5-methyl-4-(5-methyl-2-(2H-1,2,3-triazol-2-yl)benzoyl)-1,4-diazepan-1-yl)quinazolin-4(3H)-one], the IC50 in series [2] was 0.221 µM. Besides, in series [1] (setting [4]), the AUC(0-inf) is 1.74 µg·h/mL, the AUC(0-t) was 1.73 µg·h/mL, the Cmax was found to be 3.66 µg/mL and the Tmax was found to be 4.98 min. Also, in series [1] (setting [4]), the clearance worked out at 0.58 L/h/kg and the Vd is 0.292 L/kg. Also, in series [1] (oral administration, 5 mg/kg), the AUC(0-inf) came out at 6.84 µg·h/mL, the AUC(0-t) is 6.8 µg·h/mL, the highest concentration (Cmax) was determined as 5.68 µg/mL and the Tmax was 20 min. For the same compound, in series [1] (oral administration, 5 mg/kg), the F worked out at 79%. The IC50 in series [3] stood at 0.367 µM.

Regarding `Cc1ccc(-n2nccn2)c(C(=O)N2CCCN(c3nc4ccc(Cl)cc4c(=O)[nH]3)CC2)c1` [Example 5, 6-chloro-2-(4-(5-methyl-2-(2H-1,2,3-triazol-2-yl)benzoyl)-1,4-diazepan-1-yl)quinazolin-4(3H)-one], the IC50 stood at 0.263 µM in series [2] and 0.276 µM in series [3].

As for `Cc1ccc(-n2nccn2)c(C(=O)N2CCCN(c3nc4ccc(F)cc4c(=O)[nH]3)CC2)c1` [Example 1, 6-fluoro-2-(4-(5-methyl-2-(2H-1,2,3-triazol-2-yl)benzoyl)-1,4-diazepan-1-yl)quinazolin-4(3H)-one], the IC50 in series [2] amounted to 0.3 µM; in series [3], 0.322 µM.

As for `Cc1ccc(-n2nccn2)c(C(=O)N2CCN(c3nc4ccc(F)cc4c(=O)[nH]3)CCC2C)c1` (centres unmarked) [Example 2, 6-fluoro-2-(5-methyl-4-(5-methyl-2-(2H-1,2,3-triazol-2-yl)benzoyl)-1,4-diazepan-1-yl)quinazolin-4(3H)-one], the half-inhibitory concentration (IC50) in series [2] amounted to 0.169 µM. In addition, in series [1] (setting [4]), the AUC(0-inf) was found to be 0.866 µg·h/mL, the AUC(0-t) stood at 0.865 µg·h/mL, the peak concentration (Cmax) was determined as 1.4 µg/mL and the Tmax amounted to 4.98 min. Besides, in series [1] (setting [4]), the clearance was 1.15 L/h/kg and the Vd was 0.66 L/kg. Moreover, in series [1] (oral administration, 2.5 mg/kg), the AUC(0-inf) is 1.78 µg·h/mL, the AUC(0-t) stood at 1.77 µg·h/mL, the peak level (Cmax) was 1.94 µg/mL and the Tmax stood at 20 min. The compound also gave a F in series [1] (oral administration, 2.5 mg/kg) of 81.8%. In series [3], the IC50 is 0.543 µM.
